# In patent publication US9492471B2, “Methods of treating a disease or disorder associated with Bruton'S Tyrosine Kinase” (Celgene Avilomics Research, Inc., priority 2013, dated 2016):
# Read-outs that look alike come from different tables or passages of the source.
# Assays:
# Test in all cases: HotSpot kinase profiling
# Assay type in all cases: biochemical
# [1] = target: T1, PASK (Homo sapiens, UniProt Q96RG2)
# T1 construct: purchased Reaction Biology Corp
# In short: (§1)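 Activity is measured by radiolabel transfer captured on P81 filters after a 2 h room-temperature reaction of kinase, substrate and cofactors. Values are percent inhibition against DMSO.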
# [2] = target: T2, CAMK2b (Homo sapiens, UniProt Q13554)
# T2 construct: purchased Reaction Biology Corp
# T2 sequence (Q13554 whole entry): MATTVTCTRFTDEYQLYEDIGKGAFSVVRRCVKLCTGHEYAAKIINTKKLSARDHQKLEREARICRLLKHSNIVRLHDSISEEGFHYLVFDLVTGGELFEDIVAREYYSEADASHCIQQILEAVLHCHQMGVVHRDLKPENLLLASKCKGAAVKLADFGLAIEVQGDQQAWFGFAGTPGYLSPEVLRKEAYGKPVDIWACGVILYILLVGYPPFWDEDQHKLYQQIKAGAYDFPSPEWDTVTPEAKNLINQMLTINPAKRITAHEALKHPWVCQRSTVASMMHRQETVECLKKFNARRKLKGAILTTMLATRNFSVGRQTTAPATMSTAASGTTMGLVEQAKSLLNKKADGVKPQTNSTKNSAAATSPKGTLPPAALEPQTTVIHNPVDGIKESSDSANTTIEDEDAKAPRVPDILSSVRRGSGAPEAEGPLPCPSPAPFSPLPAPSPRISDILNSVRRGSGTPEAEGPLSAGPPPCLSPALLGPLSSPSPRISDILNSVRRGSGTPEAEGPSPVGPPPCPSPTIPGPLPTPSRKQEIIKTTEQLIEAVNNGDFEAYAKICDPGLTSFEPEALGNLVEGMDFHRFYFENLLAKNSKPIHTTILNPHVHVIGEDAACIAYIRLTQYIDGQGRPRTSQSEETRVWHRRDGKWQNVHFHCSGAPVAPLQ
# In short: as §1
# [3] = target: T3, AKT2 (Homo sapiens, UniProt P31751)
# T3 construct: purchased Reaction Biology Corp
# T3 sequence (P31751 whole entry): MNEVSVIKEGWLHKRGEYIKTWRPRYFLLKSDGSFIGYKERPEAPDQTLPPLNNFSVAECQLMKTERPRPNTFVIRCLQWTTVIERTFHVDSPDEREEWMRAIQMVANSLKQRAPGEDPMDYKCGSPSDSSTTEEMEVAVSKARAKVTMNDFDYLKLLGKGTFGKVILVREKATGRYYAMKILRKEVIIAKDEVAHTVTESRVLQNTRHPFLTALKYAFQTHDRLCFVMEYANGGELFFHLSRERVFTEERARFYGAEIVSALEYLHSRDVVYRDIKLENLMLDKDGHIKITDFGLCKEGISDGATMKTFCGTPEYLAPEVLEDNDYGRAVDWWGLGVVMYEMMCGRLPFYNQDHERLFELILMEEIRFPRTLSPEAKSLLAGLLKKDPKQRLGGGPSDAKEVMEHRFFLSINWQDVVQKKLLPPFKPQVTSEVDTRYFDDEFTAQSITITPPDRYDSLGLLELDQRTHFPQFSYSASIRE
# In short: as §1
# [4] = target: T4, PLK3 (Homo sapiens, UniProt Q9H4B4)
# T4 construct: purchased Reaction Biology Corp
# T4 sequence (Q9H4B4 whole entry): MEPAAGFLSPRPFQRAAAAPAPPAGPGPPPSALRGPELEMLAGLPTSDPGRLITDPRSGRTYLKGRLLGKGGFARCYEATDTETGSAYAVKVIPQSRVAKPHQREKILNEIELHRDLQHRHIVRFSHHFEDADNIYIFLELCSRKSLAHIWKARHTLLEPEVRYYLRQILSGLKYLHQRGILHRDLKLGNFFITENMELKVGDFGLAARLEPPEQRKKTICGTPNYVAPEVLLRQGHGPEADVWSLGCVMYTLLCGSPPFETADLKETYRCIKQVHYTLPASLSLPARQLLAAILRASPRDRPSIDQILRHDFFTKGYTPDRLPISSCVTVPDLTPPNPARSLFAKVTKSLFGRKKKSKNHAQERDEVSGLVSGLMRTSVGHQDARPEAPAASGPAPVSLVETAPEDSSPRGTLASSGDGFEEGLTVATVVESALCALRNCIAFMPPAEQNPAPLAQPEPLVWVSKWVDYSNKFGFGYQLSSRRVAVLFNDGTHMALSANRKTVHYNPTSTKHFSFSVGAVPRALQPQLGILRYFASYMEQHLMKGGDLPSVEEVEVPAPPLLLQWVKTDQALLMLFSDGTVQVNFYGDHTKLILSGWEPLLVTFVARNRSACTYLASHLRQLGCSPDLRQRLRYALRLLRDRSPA
# In short: as §1
# [5] = target: T5, FMS (Homo sapiens, UniProt P07333)
# T5 construct: purchased Reaction Biology Corp
# T5 sequence (P07333 20-972): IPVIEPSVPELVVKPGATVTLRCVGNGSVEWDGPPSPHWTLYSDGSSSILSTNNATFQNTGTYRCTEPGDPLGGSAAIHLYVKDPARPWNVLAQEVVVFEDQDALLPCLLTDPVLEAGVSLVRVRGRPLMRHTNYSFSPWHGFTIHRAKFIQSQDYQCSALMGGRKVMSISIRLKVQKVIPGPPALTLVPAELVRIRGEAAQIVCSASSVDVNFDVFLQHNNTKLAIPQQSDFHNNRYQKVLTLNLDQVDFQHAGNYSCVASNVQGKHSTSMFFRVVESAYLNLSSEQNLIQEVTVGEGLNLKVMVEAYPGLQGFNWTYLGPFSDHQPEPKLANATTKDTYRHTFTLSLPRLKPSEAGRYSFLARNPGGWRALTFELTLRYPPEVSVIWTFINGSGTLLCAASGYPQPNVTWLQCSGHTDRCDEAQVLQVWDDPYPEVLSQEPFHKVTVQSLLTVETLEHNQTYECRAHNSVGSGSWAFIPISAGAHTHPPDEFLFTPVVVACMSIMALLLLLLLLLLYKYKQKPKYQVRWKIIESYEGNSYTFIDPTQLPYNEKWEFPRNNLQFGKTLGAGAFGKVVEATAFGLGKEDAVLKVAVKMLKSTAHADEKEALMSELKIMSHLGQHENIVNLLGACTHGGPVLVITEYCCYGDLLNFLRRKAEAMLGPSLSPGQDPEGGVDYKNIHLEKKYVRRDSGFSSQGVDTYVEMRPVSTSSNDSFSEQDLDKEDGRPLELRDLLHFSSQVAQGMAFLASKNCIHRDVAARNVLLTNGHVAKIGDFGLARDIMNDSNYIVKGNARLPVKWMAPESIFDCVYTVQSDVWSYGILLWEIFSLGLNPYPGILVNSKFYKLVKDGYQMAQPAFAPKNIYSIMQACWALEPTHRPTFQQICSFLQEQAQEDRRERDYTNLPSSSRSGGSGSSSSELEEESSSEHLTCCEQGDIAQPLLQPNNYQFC
# In short: as §1
# [6] = target: T6, CAMK2d (Homo sapiens, UniProt Q13557)
# T6 construct: purchased Reaction Biology Corp
# T6 sequence (Q13557 whole entry): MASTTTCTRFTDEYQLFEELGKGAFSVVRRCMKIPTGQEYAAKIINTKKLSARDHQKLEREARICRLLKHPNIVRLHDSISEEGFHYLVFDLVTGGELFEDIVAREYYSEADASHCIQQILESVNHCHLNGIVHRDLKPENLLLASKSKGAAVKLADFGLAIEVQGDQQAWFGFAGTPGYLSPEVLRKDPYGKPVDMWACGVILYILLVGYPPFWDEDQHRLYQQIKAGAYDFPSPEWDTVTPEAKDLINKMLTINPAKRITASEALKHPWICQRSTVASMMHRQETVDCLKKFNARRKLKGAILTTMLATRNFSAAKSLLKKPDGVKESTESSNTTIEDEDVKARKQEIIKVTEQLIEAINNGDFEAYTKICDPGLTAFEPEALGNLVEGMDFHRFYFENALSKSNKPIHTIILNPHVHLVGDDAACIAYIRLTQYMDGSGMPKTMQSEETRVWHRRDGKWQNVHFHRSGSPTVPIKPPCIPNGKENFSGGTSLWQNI
# In short: as §1
# [7] = target: T7, NEK1 (Homo sapiens, UniProt Q96PY6)
# T7 construct: purchased Reaction Biology Corp
# T7 sequence (Q96PY6 1-1258): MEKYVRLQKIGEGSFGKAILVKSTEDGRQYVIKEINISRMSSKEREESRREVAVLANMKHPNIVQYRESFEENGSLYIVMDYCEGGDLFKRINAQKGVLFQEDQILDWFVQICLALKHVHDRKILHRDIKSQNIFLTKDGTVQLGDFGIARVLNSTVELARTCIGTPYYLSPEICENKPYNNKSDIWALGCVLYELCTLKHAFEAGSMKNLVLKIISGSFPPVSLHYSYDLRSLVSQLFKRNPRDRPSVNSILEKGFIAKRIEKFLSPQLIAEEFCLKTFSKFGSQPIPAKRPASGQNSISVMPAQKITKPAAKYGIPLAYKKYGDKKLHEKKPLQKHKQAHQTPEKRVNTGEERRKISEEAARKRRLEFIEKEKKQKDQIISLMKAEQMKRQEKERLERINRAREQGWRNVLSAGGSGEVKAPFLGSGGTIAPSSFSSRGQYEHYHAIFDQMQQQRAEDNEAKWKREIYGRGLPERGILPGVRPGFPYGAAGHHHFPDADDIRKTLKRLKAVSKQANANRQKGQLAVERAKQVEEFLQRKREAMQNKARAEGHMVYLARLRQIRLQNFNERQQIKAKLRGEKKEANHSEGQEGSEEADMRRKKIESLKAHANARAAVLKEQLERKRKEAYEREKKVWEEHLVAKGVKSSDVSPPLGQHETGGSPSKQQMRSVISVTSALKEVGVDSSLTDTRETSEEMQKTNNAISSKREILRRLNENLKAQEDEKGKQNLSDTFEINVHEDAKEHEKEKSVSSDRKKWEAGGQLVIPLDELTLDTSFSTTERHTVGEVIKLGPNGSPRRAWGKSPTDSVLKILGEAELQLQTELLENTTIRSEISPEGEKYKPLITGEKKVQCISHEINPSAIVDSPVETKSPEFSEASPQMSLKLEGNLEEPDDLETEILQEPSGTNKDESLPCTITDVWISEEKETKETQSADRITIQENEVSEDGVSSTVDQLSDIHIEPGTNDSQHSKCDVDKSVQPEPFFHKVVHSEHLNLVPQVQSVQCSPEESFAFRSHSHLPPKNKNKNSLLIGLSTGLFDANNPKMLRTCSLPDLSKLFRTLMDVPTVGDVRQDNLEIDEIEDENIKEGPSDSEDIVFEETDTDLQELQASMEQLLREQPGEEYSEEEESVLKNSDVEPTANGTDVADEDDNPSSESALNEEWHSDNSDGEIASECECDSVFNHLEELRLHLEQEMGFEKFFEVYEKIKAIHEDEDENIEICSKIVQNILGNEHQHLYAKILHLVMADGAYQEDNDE
# In short: as §1
# [8] = target: T8, CAMK4 (Homo sapiens, UniProt Q16566)
# T8 construct: purchased Reaction Biology Corp
# T8 sequence (Q16566 1-473): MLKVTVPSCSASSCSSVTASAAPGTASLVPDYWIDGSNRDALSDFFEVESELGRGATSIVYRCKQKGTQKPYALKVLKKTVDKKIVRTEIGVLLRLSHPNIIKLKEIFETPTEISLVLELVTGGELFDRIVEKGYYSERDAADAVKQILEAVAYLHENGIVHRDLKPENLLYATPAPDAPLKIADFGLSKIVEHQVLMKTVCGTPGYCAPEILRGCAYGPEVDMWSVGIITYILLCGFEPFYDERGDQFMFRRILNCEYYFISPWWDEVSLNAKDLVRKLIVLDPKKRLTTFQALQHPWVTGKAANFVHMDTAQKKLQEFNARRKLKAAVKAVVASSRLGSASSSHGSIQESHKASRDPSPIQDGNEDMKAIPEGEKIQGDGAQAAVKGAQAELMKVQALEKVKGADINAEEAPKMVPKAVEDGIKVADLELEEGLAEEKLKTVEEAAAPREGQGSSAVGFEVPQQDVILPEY
# In short: as §1
# [9] = read-out: % Enzyme Activity (relative to DMSO controls) Run 1
# [10] = read-out: % Enzyme Activity (relative to DMSO controls) Run 2
# T1 sequence (Q96RG2 whole entry): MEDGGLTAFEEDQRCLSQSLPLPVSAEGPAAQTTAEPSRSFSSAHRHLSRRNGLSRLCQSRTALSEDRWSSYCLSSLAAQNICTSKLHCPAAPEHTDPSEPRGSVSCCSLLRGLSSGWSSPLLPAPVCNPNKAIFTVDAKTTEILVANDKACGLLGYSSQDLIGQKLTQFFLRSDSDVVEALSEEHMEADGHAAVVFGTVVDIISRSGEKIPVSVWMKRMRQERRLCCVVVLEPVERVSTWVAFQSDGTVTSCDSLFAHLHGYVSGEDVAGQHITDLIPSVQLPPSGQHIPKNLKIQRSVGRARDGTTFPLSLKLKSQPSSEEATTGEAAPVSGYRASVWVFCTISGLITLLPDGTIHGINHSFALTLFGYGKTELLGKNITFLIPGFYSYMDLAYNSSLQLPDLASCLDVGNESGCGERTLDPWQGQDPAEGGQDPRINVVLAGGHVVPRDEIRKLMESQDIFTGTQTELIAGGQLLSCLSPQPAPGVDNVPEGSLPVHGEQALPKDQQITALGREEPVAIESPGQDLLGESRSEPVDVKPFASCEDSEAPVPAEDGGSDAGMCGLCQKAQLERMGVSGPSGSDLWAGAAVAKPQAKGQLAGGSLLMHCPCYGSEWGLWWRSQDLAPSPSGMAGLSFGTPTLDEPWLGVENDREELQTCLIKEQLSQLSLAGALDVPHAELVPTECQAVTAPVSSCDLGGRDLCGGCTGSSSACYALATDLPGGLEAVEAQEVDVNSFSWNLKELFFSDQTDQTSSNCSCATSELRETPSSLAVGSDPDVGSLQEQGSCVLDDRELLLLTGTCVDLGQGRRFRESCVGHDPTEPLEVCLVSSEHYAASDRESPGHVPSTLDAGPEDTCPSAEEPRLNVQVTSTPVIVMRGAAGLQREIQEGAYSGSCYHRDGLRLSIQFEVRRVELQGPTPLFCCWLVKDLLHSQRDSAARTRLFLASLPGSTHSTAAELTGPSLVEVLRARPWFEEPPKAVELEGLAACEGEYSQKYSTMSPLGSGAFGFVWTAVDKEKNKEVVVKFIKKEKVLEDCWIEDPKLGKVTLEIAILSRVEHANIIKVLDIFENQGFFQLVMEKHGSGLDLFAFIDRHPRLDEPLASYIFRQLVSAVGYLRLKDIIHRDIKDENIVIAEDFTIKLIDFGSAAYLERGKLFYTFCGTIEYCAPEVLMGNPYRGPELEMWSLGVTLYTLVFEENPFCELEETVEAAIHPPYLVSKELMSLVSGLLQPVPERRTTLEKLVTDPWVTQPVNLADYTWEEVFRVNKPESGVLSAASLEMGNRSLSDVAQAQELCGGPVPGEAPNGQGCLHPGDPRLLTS
smiles,measurement,setting,value
C=CC(=O)Nc1cccc(Nc2nc(Nc3ccc(OCCOC)c(F)c3)ncc2F)c1 [Compound 2],inhibition at 3 µM,[1],6.14%
same,remaining activity at 3 µM,[1]; [9],94.7%
same,remaining activity at 3 µM,[1]; [10],93.1%
same,inhibition at 3 µM,[2],3.89%
same,remaining activity at 3 µM,[2]; [9],96.4%
same,remaining activity at 3 µM,[2]; [10],95.8%
same,inhibition at 3 µM,[3],4.23%
same,remaining activity at 3 µM,[3]; [9],93.7%
same,remaining activity at 3 µM,[3]; [10],97.9%
same,inhibition at 3 µM,[4],1.28%
same,remaining activity at 3 µM,[4]; [9],97%
same,remaining activity at 3 µM,[4]; [10],100%
same,inhibition at 3 µM,[5],34.1%
same,remaining activity at 3 µM,[5]; [9],64.5%
same,remaining activity at 3 µM,[5]; [10],67.3%
same,inhibition at 3 µM,[6],-23.3%
same,remaining activity at 3 µM,[6]; [9],124%
same,remaining activity at 3 µM,[6]; [10],123%
same,inhibition at 3 µM,[7],46.6%
same,remaining activity at 3 µM,[7]; [9],52.7%
same,remaining activity at 3 µM,[7]; [10],54%
same,inhibition at 3 µM,[8],-2.26%
same,remaining activity at 3 µM,[8]; [9],102%
same,remaining activity at 3 µM,[8]; [10],102%
